From patent US10517889B2, “Modulators of SMAD7 expression” (Ionis Pharmaceuticals, Inc., priority 2017, dated 2019)
Strand notation (5' to 3'): a small letter for the sugar, then the base; units joined by * are phosphorothioate-linked, units joined directly phosphodiester-linked; [ ] holds rarer units or linkages, { } end groups; capitals alone tell only the bases. k = constrained ethyl (cEt); [5mC] = 5-methylcytosine; d = 2'-deoxy (DNA)

Test system: human SMAD7 mRNA
Test: Antisense inhibition of human SMAD7 mRNA expression in Hep3B cells by 3-10-3 cEt gapmers, 10,000 nM, electroporation (Example 2)
Format: cell-based
Conditions: approximately 24 hours
Procedure: Antisense oligonucleotides were designed to target human SMAD7 mRNA and were tested for their effects on SMAD7 mRNA expression in vitro. The antisense oligonucleotides were tested in a series of experiments that had similar culture conditions, as described below. ION 771576, described in the studies above and which is a 5-10-5 MOE gapmer, was also included in these assays. Cultured Hep3B cells at a density of 20,000 cells per well were transfected using electroporation with 10,000 nM antisense oligonucleotide. After a treatment period of approximately 24 hours, RNA was isolated from the cells and SMAD7 mRNA levels were measured by quantitative real-time PCR. Primer probe set RTS5062 was used to measure human SMAD7 mRNA levels. SMAD7 mRNA levels were adjusted according to total RNA content, as measured by RIBOGREEN®. Results are presented as percent inhibition of SMAD7 mRNA expression, relative to untreated control cells.
The newly designed chimeric antisense oligonucleotides in the Tables below were designed as 3-10-3 cEt gapmers. The gapmers are 16 nucleosides in length, wherein the central gap segment comprises often 2′-deoxynucleosides and is flanked by wing segments on the 5′ direction and the 3′ direction comprising three nucleosides each. Each nucleoside in the 5′ wing segment and each nucleoside in the 3′ wing segment has a cEt sugar modification. The internucleoside linkages throughout each gapmer are phosphorothioate (P═S) linkages. All cytosine residues throughout each gapmer are 5-methylcytosines.
“Start site” indicates the 5′-most nucleoside to which the gapmer is targeted in the human gene sequence. “Stop site” indicates the 3′-most nucleoside to which the gapmer is targeted human gene sequence. […] Some of the oligonucleotides presented were complementary to SMAD7 mRNA sequences RefSeqNo. NM_001190821.1 (designated herein as SEQ ID NO: 3) or RefSeqNo. NM_001190822.1 (designated herein as SEQ ID NO: 4), and are presented in a separate table shown below.

[1] = Hep3B cells, electroporation with 10,000 nM antisense oligonucleotide, primer probe set RTS5062, relative to untreated control cells
[2] = SMAD7 mRNA, Hep3B cells, 10,000 nM antisense oligonucleotide, electroporation, primer probe set RTS5062, relative to untreated control cells
[3] = Hep3B cells, electroporation, 10,000 nM antisense oligonucleotide, RTS5062, relative to untreated control cells
[4] = Hep3B cells, electroporation with 10,000 nM antisense oligonucleotide, SMAD7 mRNA by RT-PCR (RTS5062), relative to untreated control cells

Substance	% Inhibition [2] [%]	further results
772702 (k[5mC]*kG*kT*d[5mC]*dT*dT*dT*dA*dT*dA*dT*dT*dT*kA*k[5mC]*kA; antisense) [compound 772702]		% Inhibition [1]: 23%
772708 (kA*kA*kA*dG*dT*dG*d[5mC]*dA*dT*d[5mC]*dT*dT*dT*kT*k[5mC]*kT; antisense) [compound 772708]		% inhibition of SMAD7 mRNA expression [1]: 0%
772709 (kT*kA*kA*dA*dG*d[5mC]*dA*dA*dA*dG*dT*dG*d[5mC]*kA*kT*k[5mC]; antisense) [compound 772709]		% inhibition of SMAD7 mRNA expression [1]: 0%
772711 (kA*kA*kA*d[5mC]*dA*d[5mC]*d[5mC]*dA*dA*dT*d[5mC]*dT*dT*kG*kT*kG; antisense) [compound 772711]	0	
772712 (kA*k[5mC]*k[5mC]*d[5mC]*dA*dT*dA*dG*dA*dA*dA*dA*dA*kA*kA*k[5mC]; antisense) [compound 772712]		% inhibition of SMAD7 mRNA expression [1]: 0%
772713 (kA*kT*kA*dA*d[5mC]*dA*d[5mC]*d[5mC]*d[5mC]*dA*dT*dA*dG*kA*kA*kA; antisense) [compound 772713]	24	
772714 (kA*kG*kG*dT*dG*dA*dT*dA*dA*d[5mC]*dA*d[5mC]*d[5mC]*k[5mC]*kA*kT; antisense) [compound 772714]	0	
772715 (kA*kG*k[5mC]*dT*dA*dG*dG*dT*dG*dA*dT*dA*dA*k[5mC]*kA*k[5mC]; antisense) [compound 772715]	0	
772717 (kA*k[5mC]*kT*d[5mC]*d[5mC]*dT*dT*dT*dA*dG*dA*dA*dA*kA*kA*k[5mC]; antisense) [compound 772717]		% inhibition of SMAD7 mRNA expression [1]: 28%
772733 (kG*kG*kT*dG*dA*dT*dT*dG*d[5mC]*d[5mC]*dT*dT*dG*kA*kT*kA; antisense) [compound 772733]	39	
772734 (kA*kG*kG*d[5mC]*dA*dG*dG*dG*d[5mC]*d[5mC]*dG*d[5mC]*dG*kA*kG*kG; antisense) [compound 772734]	16	
772735 (kA*kA*k[5mC]*dT*dG*dT*dT*dT*dG*dT*d[5mC]*dT*dT*kA*kG*k[5mC]; antisense) [compound 772735]	52	
772738 (kA*k[5mC]*k[5mC]*dA*dG*dT*dT*dG*dG*dT*dT*dT*dG*kA*kG*kA; antisense) [compound 772738]	16	
772739 (kT*kA*k[5mC]*dT*d[5mC]*dA*d[5mC]*d[5mC]*dA*dG*dT*dT*dG*kG*kT*kT; antisense) [compound 772739]	0	
772762 (kA*kT*kT*dT*dT*dG*d[5mC]*dT*dA*d[5mC]*d[5mC]*dT*dA*kA*kT*kG; antisense) [compound 772762]	11	
772765 (kG*kA*kT*dT*dG*dG*d[5mC]*dA*dG*dG*dT*dT*dA*kA*kT*k[5mC]; antisense) [compound 772765]	35	
772786 (kG*kA*k[5mC]*d[5mC]*dA*d[5mC]*dA*dG*d[5mC]*dA*d[5mC]*d[5mC]*dT*kT*kG*kT; antisense) [compound 772786]		% inhibition of SMAD7 mRNA expression [3]: 19%
772801 (kG*kA*k[5mC]*dA*dA*dA*d[5mC]*d[5mC]*dT*dT*d[5mC]*d[5mC]*dG*kA*kA*kA; antisense) [compound 772801]		% inhibition of SMAD7 mRNA expression [3]: 34%
772808 (k[5mC]*k[5mC]*k[5mC]*d[5mC]*dA*dT*dT*d[5mC]*dA*dT*dT*dA*dA*kG*k[5mC]*k[5mC]; antisense) [compound 772808]	34	
772809 (k[5mC]*k[5mC]*kT*dA*dA*dA*d[5mC]*dT*dG*dA*dG*d[5mC]*d[5mC]*k[5mC]*k[5mC]*kA; antisense) [compound 772809]	48	

Substance	% Inhibition [2] [%]	further results
772813 (kA*kA*kG*dG*dG*d[5mC]*dG*d[5mC]*dA*dG*dG*dA*dA*kA*kG*kG; antisense) [compound 772813]		% inhibition of SMAD7 mRNA expression [3]: 43%
772889 (k[5mC]*kT*k[5mC]*d[5mC]*dA*dT*dT*d[5mC]*dA*dT*dA*dA*dT*kA*kT*kT; antisense) [compound 772889]		% Inhibition [4]: 7%
772929 (k[5mC]*kG*kG*dA*dA*dG*dT*d[5mC]*dT*dT*dG*dT*dA*kT*kT*kT; antisense) [compound 772929]	37	
790458 (k[5mC]*kG*k[5mC]*d[5mC]*dA*dG*dT*d[5mC]*dT*d[5mC]*d[5mC]*d[5mC]*dG*kG*kA*kG; antisense) [compound 790458]		% Inhibition [4]: 0%
790460 (kA*kG*kG*dA*dG*d[5mC]*dG*dG*d[5mC]*dG*dG*d[5mC]*dG*kG*k[5mC]*k[5mC]; antisense) [compound 790460]		% Inhibition [4]: 58%
790461 (k[5mC]*k[5mC]*kG*dG*dG*d[5mC]*dA*dG*dG*dA*dG*d[5mC]*dG*kG*k[5mC]*kG; antisense) [compound 790461]		% inhibition of SMAD7 mRNA expression [1]: 42%
790462 (kG*k[5mC]*kG*d[5mC]*dA*dG*dG*d[5mC]*dG*dA*d[5mC]*dA*dG*k[5mC]*kA*kG; antisense) [compound 790462]		% inhibition of SMAD7 mRNA expression [1]: 43%
790463 (kA*kT*kG*dA*dA*dG*dA*dA*dG*dT*d[5mC]*dG*dG*kG*k[5mC]*kG; antisense) [compound 790463]	53	
790464 (kA*kG*k[5mC]*dG*dA*dA*d[5mC]*dA*dT*dG*dA*d[5mC]*d[5mC]*kT*k[5mC]*k[5mC]; antisense) [compound 790464]		% Inhibition [4]: 58%
790465 (kA*kA*kG*dG*dA*dG*d[5mC]*dG*dA*dA*d[5mC]*dA*dT*kG*kA*k[5mC]; antisense) [compound 790465]		% Inhibition [4]: 54%
790468 (kG*k[5mC]*kG*dA*dG*dG*dA*dG*dA*dA*dA*dA*dG*kT*k[5mC]*kG; antisense) [compound 790468]		% inhibition of SMAD7 mRNA expression [1]: 0%
790469 (k[5mC]*kG*kG*dA*d[5mC]*dG*dA*dG*d[5mC]*dG*d[5mC]*dA*dG*kA*kT*k[5mC]; antisense) [compound 790469]	41	
790471 (k[5mC]*kG*k[5mC]*d[5mC]*dG*dG*dG*d[5mC]*dG*d[5mC]*dA*d[5mC]*dG*kG*k[5mC]*kT; antisense) [compound 790471]	4	
790479 (kG*kG*k[5mC]*dA*dG*d[5mC]*dA*dG*dG*dA*dG*dG*d[5mC]*kA*k[5mC]*kG; antisense) [compound 790479]		% Inhibition [4]: 43%
790484 (kG*kA*kA*d[5mC]*dA*d[5mC]*dT*dT*dT*dG*d[5mC]*dA*d[5mC]*kA*kG*k[5mC]; antisense) [compound 790484]	62	
790485 (k[5mC]*kA*k[5mC]*d[5mC]*dT*dG*dA*dA*d[5mC]*dA*d[5mC]*dT*dT*kT*kG*k[5mC]; antisense) [compound 790485]		% Inhibition [4]: 26%
790486 (kT*kG*k[5mC]*d[5mC]*dT*dG*dA*dG*dA*dT*d[5mC]*d[5mC]*dG*kG*k[5mC]*k[5mC]; antisense) [compound 790486]	23	
790489 (k[5mC]*kT*k[5mC]*dT*dT*dG*dA*d[5mC]*dT*dT*d[5mC]*d[5mC]*dG*kA*kG*kG; antisense) [compound 790489]		% inhibition of SMAD7 mRNA expression [1]: 0%
790491 (kG*kT*kA*dA*dG*dA*dT*dT*d[5mC]*dA*d[5mC]*dA*dG*k[5mC]*kA*kA; antisense) [compound 790491]	56	
790492 (kT*k[5mC]*k[5mC]*d[5mC]*dG*dT*dA*dA*dG*dA*dT*dT*d[5mC]*kA*k[5mC]*kA; antisense) [compound 790492]		% Inhibition [4]: 38%
